Measurements from PubChem BioAssay (NCI).
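Cells were grown in 96-well plates and exposed to each compound for 48 hours at five concentrations; endpoints were interpolated linearly between bracketing concentrations, or set to the highest concentration if not reached. At the GI50, growth is halved. TGI: concentration producing complete growth inhibition.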 Where a SMILES comes first, the peptide text is derived from it. The star is where a group is joined. Boc = CC(C)(C)OC(=O)*; OBn = c1ccc(CO*)cc1

Legend:
Assay in all cases: DTP human tumour cell line panel, 48 h
UACC-257 melanoma = test system: UACC-257 melanoma
SNB-19 CNS = test system: SNB-19 CNS
NCI-H226 lung = test system: NCI-H226 lung
MOLT-4 leukemia = test system: MOLT-4 leukemia
SK-OV-3 ovarian = test system: SK-OV-3 ovarian
COLO 205 colon = test system: COLO 205 colon
HT29 colon = test system: HT29 colon
MDA-MB-231 breast = test system: MDA-MB-231 breast
SNB-75 CNS = test system: SNB-75 CNS

| Compound | TGI (UACC-257 melanoma) [µM] | TGI (SNB-19 CNS) [µM] | TGI (NCI-H226 lung) [µM] | TGI (MOLT-4 leukemia) [µM] | TGI (SK-OV-3 ovarian) [µM] | TGI (COLO 205 colon) [µM] | TGI (HT29 colon) [µM] | TGI (MDA-MB-231 breast) [µM] | TGI (SNB-75 CNS) [µM] | GI50 (MDA-MB-231 breast) [nM] |
| --- | --- | --- | --- | --- | --- | --- | --- | --- | --- | --- |
| CN(NC(=O)CCCl)C1=NCCCCN1 | > 100 | > 100 | > 100 | > 100 | > 100 | > 100 | > 100 | > 100 | > 100 |  |
| CN(C)Cc1cc(O)c(O)c(CN(C)C)c1 | 45.9 | > 100 | > 100 | > 100 | > 100 | > 100 | > 100 | > 100 | > 100 |  |
| C1CCC(OC2CSC2)OC1 (centres undefined) | > 100 | > 100 | > 100 | > 100 | > 100 | > 100 | > 100 | > 100 | > 100 |  |
| CCOC(=O)/C=C(\C(=O)OCC)n1ccc(N)nc1=O | > 100 | > 100 | > 100 | > 100 | > 100 | > 100 | > 100 | > 100 | > 100 |  |
| CCCNC(C#N)c1ccc(C(C#N)NCCC)cc1 (centres undefined) | > 100 | > 100 | > 100 | > 100 | > 100 | > 100 | > 100 | > 100 |  |  |
| O=c1c2cc(I)ccc2nc(Sc2ncccc2[N+](=O)[O-])n1Cc1ccccc1 | > 100 | > 100 | > 100 | > 100 | > 100 | > 100 | > 100 | > 100 | > 100 |  |
| CC(C)(C)C1(COC(=O)c2ccc(N)cc2)COC1 | > 100 | > 100 | > 100 | > 100 | > 100 | > 100 | > 100 | > 100 | > 100 |  |
| COP(=O)(OC)C(Cc1c[nH]c2ccccc12)NC(=O)OCc1ccccc1 (centres undefined) | > 100 | > 100 | > 100 |  | > 100 | > 100 | > 100 | > 100 | > 100 |  |
| CCCCc1ccc(Nc2ncc3[nH]cnc3n2)cc1 | 59 | 44.4 | 45.4 | > 100 | 38.1 | 36.7 | 44.8 | 30.3 | 35.5 |  |
| COc1cc(CC2c3cc(OC)c(OC)cc3CCN2C)c(Oc2cc3c(cc2OC)-c2c(O)c(OC)cc4c2C(C3)N(C)CC4)cc1OC (centres undefined) | 37.4 | 57.4 | 66.2 | > 100 | > 100 | 42.5 | 36.6 | 37.7 | 31.3 |  |
| CNC(=O)c1cc(NC(=O)N(CCC#N)CCN(C(=O)N[C@@H](Cc2ccccc2)C(=O)N[C@@H](CC(C)C)C(=O)NC)c2ccccc2)ccc1OC | 51 | > 100 | > 100 | > 100 | > 100 | > 100 | > 100 | > 60.3 | > 100 |  |
| O=C1/C(=C/c2ccccc2[N+](=O)[O-])N=C(c2ccccc2)N1C1Nc2cc3c(cc2S1)NC(N1C(=O)/C(=C/c2ccccc2[N+](=O)[O-])N=C1c1ccccc1)S3 (centres undefined) | > 100 |  | > 100 | > 100 |  |  | > 100 | > 100 | > 100 |  |
| Oc1[nH]c2ccccc2c1N=Nc1nc(-c2ccc(Cl)c(Cl)c2)cs1 | > 100 | > 100 | > 100 | > 100 | > 100 | > 100 | > 100 | > 100 | > 100 |  |
| COC(=O)/C=C(/C(=O)OC)c1c(C)c(C)c2c(C)cc(C)cc(C)c1-2 | > 100 | > 100 | 58.9 | > 100 | 76.8 | > 100 | 34.3 | > 100 |  |  |
| C=C(C)C(=O)[C@@]12C(=O)[C@@H](C)CC[C@H]1[C@H](C)C[C@@H]2C=C(C)C | 33.5 | 32.5 | > 100 | 65.7 | > 100 | 41.5 | 34.8 | 51.3 | > 100 |  |
| [N-]=[N+]=NCc1cccc(Nc2cc(=O)[nH]c(=O)[nH]2)c1 | > 100 | > 100 | > 100 | > 100 | > 100 | > 100 | > 100 |  | > 100 |  |
| COc1cc(/C=C2\N=C(c3ccccc3)N(c3nc4c(OC)ccc(OC)c4s3)C2=O)cc(OC)c1OC | > 100 | > 100 |  | > 100 | > 100 | > 100 | > 100 | > 100 | > 100 |  |
| COc1ccc2c(c1)n([O-])c(C#N)c(N1CCN(c3ccc([N+](=O)[O-])cc3)CC1)[n+]2=O | > 100 | > 100 | > 100 |  | > 59.5 |  | > 100 | > 100 | 66.2 |  |
| CC(NC(=O)C(NC(=O)OC(C)(C)C)C(C)C)C(=O)N1CCCC1C(=O)NCC(=O)NC(C(=O)NCC(=O)OCc1ccccc1)C(C)C (centres undefined) (Boc-VAPGVG-OBn; configuration not given here) | > 100 | > 100 |  |  | > 100 | > 100 | > 100 | > 100 | > 100 |  |
| C(=C\c1ccccc1)/C=N/c1nc2cc3sc(/N=C/C=C/c4ccccc4)nc3cc2s1 | > 100 | > 100 |  | > 76.1 | > 100 | > 25.8 | > 100 | > 100 | > 100 |  |
| O=C1COc2ccc([N+](=O)[O-])cc2C(=O)C1 | > 10 | > 10 | > 10 | > 10 | > 10 | > 10 | > 10 | > 10 |  |  |
| COC(=O)/C=C/c1cc(O)c2c(c1)[C@H](C(=O)OC)[C@@H](c1ccc(O)c(O)c1)O2 | > 100 |  | > 22.7 | > 45.7 | > 79.8 | 61.6 | > 37.9 | > 100 | 0.0711 | 49.7 |
